Laboratory results as given in PMC7300217, “Surfactin Like Broad Spectrum Antimicrobial Lipopeptide Co-produced With Sublancin From Bacillus subtilis Strain A52: Dual Reservoir of Bioactives” (Frontiers in Microbiology, 2020).
Converted amounts (≈) assume the structure as drawn.

Tests used:
C. albicans MTCC 183 = test: MIC, microtiter plate dilution assay; type: cell-based, Candida albicans; details: Candida albicans, MTCC183; 5 × 10^5 CFU/ml, 37°C, OD600 after 48 h, triplicate
Method: (§1) The antimicrobial activity was tested by well diffusion assay as mentioned earlier ([Singh et al., 2014]). Strain A52 was grown for 24 h in 500 ml of nutrient broth (NB, Hi-media, India) using 1000 ml flask and subsequently cells were removed by centrifugation (10,000 rpm for 15 min at 4°C). Supernatant was filtered through 0.22 μm filter (Millipore, United States) to obtain cell-free fermented broth (CFB) that was used for antimicrobial assay (50 μl) against various indicator strains and the activity was measured as diameter of inhibition zone. Test strains used were Staphylococcus aureus (MTCC 1430), Bacillus subtilis (MTCC 121), B. firmus (MTCC 488), B. licheniformis (MTCC 429), B. thuringiensis (MTCC 1953), Escherichia coli (MTCC 1610), Micrococcus luteus (MTCC 106), Steptococcus pyrogens (MTCC 1928), S. anginosus (MTCC 1929), S. oralis (MTCC 2696), S. mutans (MTCC 497), Candida albicans (MTCC 1637), C. albicans (MTCC 183), C. albicans (MTCC 227), C. tropicalis (MTCC 184), C. glabrata (MTCC 3019), C. haemulonii (MTCC 2766), and C. inconsplicue (MTCC 1074). The phytopathogenic fungi employed in this study were Alternaria brassicicola (MTCC 2102), Colletotrichum acutatum (MTCC 1037), and Fusarium moniliforme (MTCC 158). Clinical isolates of Candida were provided by National Culture Collection of Pathogenic Fungi (NCCPF), PGIMER, Chandigarh, India.
(§2) The minimum inhibitory concentration (MIC) of HPLC purified peptides was evaluated by using microtiter plate dilution assay. The peptide concentration was estimated using BCA protein assay (Thermo Fisher Scientific, United States) method as described by manufacturer. Actively growing test strains (5 × 10^5 CFU/ml) were inoculated in a 96-well plate with different concentrations of the peptides and plates were incubated for 24–48 h at 37°C (final volume in each well is 200 μl). OD was measured at 600 nm after 24 and 48 h for bacteria and yeast, respectively, using ELISA microplate reader (Thermo, United States). MIC against phytopathogenic fungi was determined using 96-well microtiter plate assay ([Kaur et al., 2016]). In 96-well microplates, 100 μl of fungal spore suspension (1 × 10^5 spores/ml) prepared in potato dextrose broth (PDB, Hi-media, India) was mixed with100 μl of fresh PDB containing different concentrations of lipopeptide. Control well contained 100 μl of fungal spore suspension and 100 μl of only medium. The microplates were incubated at 25°C and readings were recorded at 600 nm after 48 h. The lowest concentration showing no growth was considered as MIC. Each test was done in triplicate and optical density (OD600) of peptide treated wells were compared with uninoculated wells (blank medium control).

F. moniliforme MTCC 158 = test: MIC against phytopathogenic fungi, 96-well microtiter plate assay; type: cell-based, Fusarium moniliforme; details: Fusarium verticillioides, MTCC158; 1 × 10^5 spores/ml in PDB, 25°C, OD600 after 48 h, triplicate
Method: as §1
The minimum inhibitory concentration (MIC) of HPLC purified peptides was evaluated by using microtiter plate dilution assay. The peptide concentration was estimated using BCA protein assay (Thermo Fisher Scientific, United States) method as described by manufacturer. […] OD was measured at 600 nm after 24 and 48 h for bacteria and yeast, respectively, using ELISA microplate reader (Thermo, United States). MIC against phytopathogenic fungi was determined using 96-well microtiter plate assay ([Kaur et al., 2016]). […] The microplates were incubated at 25°C and readings were recorded at 600 nm after 48 h. […]

[1] = system: C. parasilosis 450030 (clinical isolate); test: MIC, microtiter plate dilution assay; type: cell-based; details: 5 × 10^5 CFU/ml, 37°C, OD600 after 48 h, triplicate
Method: as §1, §2

[2] = system: C. inconsplicue MTCC 1074; test: MIC, microtiter plate dilution assay; type: cell-based; details: 5 × 10^5 CFU/ml, 37°C, OD600 after 48 h, triplicate
Method: as §1, §2

[3] = system: C. krusei 440009 (clinical isolate); test: MIC, microtiter plate dilution assay; type: cell-based; details: Pichia kudriavzevii, 5 × 10^5 CFU/ml, 37°C, OD600 after 48 h, triplicate
Method: as §1, §2

[4] = system: C. rugos 470141 (clinical isolate); test: MIC, microtiter plate dilution assay; type: cell-based; details: 5 × 10^5 CFU/ml, 37°C, OD600 after 48 h, triplicate
Method: as §1, §2

[5] = system: skin of BALB/c female mice; test: Skin irritation study (Draize test); type: in vivo; details: topical, about 1 cm^2 hairless dorsal skin, score 0 none, 1 slight, 2 moderate, 3 severe, mean
Method: Skin irritation potential of lipopetide based emulgel formulation was evaluated by carrying out skin irritancy test using 8 weeks old BALB/c female mice ([Draize et al., 1944]). Mice dorsal surface hair was removed without damaging the skin surface about 24 h prior to the experiment. Mice were divided into three groups (n = 3): […] Group II: plain gel (negative control); and Group III: […] emulgel. The formulation was topically applied to the hairless skin area (approximately 1 cm^2) and observations were recorded at 24, 48, and 72 h.

Row | MIC (C. albicans MTCC 183) [µg/mL] | MIC (F. moniliforme MTCC 158) [µg/mL] | MIC [1] [µg/mL] | MIC [2] [µg/mL] | MIC [3] [µg/mL] | MIC [4] [µg/mL] | Compound | Erythema score (n=3), 0 h [5] | Erythema score (n=3), 24h [5] | Erythema score (n=3), 48h [5] | Erythema score (n=3), 72h [5]
1 | 20 (≈ 65.3 µM) | 10 (≈ 32.7 µM) | 10 (≈ 32.7 µM) | 50 (≈ 163 µM) | 1 (≈ 3.27 µM) | 5 (≈ 16.3 µM) | OC(Cn1cncn1)(Cn1cncn1)c1ccc(F)cc1F [Fluconazole] |  |  |  | 
2 |  |  |  |  |  |  | CCCCCCCCCCCCOS(=O)(=O)[O-].[Na+] [Positive Control, sodium lauryl sulfate] | 0 | 3 | 3 | 3
